Columns and labels:
[1] = in vivo; cited from earlier work
SARS-COV = type: cell-based; details: plaque assay, 24 hpi
WT SARS-COV-2 = test: Golden Syrian hamster model of WT SARS-COV-2 infection; type: in vivo; details: 4 dpi
SARS-COV-2 = details: hES-CMs, 0.1 MOI, 24 hpi, 50 uM Propranolol
plasma proteins = details: over a wide range of blood concentrations; cited from earlier work
MERS-COV = type: cell-based; details: plaque assay

In the case of CC(C)NCC(O)COc1cccc2ccccc12 (stereo not drawn) [Propranolol, 1-(isopropylamino)-3-(1-naphthyloxy)-2-propanol], the elimination half-life [1] is given as “approximately 8 hours”, the “number of infectious viruses (viral plaques)” value (SARS-COV) is given as “effectively reduced” and the “viral nucleocapsid protein expression in bronchiolar and alveolar epithelia” value (WT SARS-COV-2; hamster lung, immunofluorescence staining) is given as “significantly reduced”. For the same molecule, the “WT SARS-COV-2 genome copies in lung tissues” value (WT SARS-COV-2; hamster, 40 mg/kg intraperitoneal from 6 hpi, 4 doses, RT-qPCR, vs mock-treated, p<0.05) was “decreased”, the “infectious virus titer in lung tissues” value (WT SARS-COV-2; hamster, 40 mg/kg intraperitoneal from 6 hpi, 4 doses, plaque assay, vs mock-treated, p<0.01) was “decreased” and the “intracellular SARS-COV-2 viral load” value (SARS-COV-2; cell lysate) was “remarkably diminished”. For the same molecule, the “extracellular SARS-COV-2 viral load” value (SARS-COV-2; cell supernatant) was “remarkably diminished”, the “bound to plasma proteins” value (plasma proteins) was “more than 90%” and the “number of infectious viruses (viral plaques)” value (MERS-COV) was “effectively reduced”.

— patent US20250064758A1 (priority 2023, published 2025)
